From US20160354427A1, “METHODS FOR INDUCING EPITHELIAL CANCER CELL SENESCENCE” (Institute for Cancer Research d/b/a The Research Institute …, priority 2011, published 2016)

Legend:
[1] = tested on: Wnt5a protein in PEO1 cells; experiment: Wnt5a protein expression by immunoblotting after Aza-C treatment; assay type: cell-based, human; conditions: 5 μmol/L Aza-C for 4 days, vs control
Excerpt: (§1) FIGS. 2A-2C show promoter DNA CpG island hypermethylation contributes to Wnt5a downregulation in human EOC cells. […] Locations of exon 1 (open rectangle), CpG sites (vertical lines) and coding exons (filled rectangle), and the transcription start site (curved arrow) are indicated. Flat arrows indicate the positions of primers used for PCR amplification, and the size of PCR product is also indicated. […] Mean of 3 independent experiments with SD.
(§2) RT-PCR, qRT-PCR and immunoblotting. RNA from cultured primary HOSE or human EOC cells was isolated using Trizol (Invitrogen) according to manufacture's instruction. For qRT-PCR, Trizol®—(Molecular Research Center, Inc., Cincinnati, Ohio) isolated RNA was further purified using a RNeasy® mini kit (Qiagen GmbH, Germany). The Wnt5a primers used for qRT-PCR were purchased from Applied Biosystems. Housekeeping β-2-microglobulin or β-actin mRNA expression was used to normalize the Wnt5a mRNA expression. Soluble β-catenin was extracted using a buffer that consisting of 10 mM pH 7.5 Tris-HCl, 0.05% NP-40, 10 mM NaCl, 3 mM MgCl2, 1 mM EDTA and proteinase inhibitors (Roche). The following antibodies were used for immunoblotting: goat anti-Wnt5a (R&D systems), mouse anti-GAPDH (Millipore/Chemicon), mouse anti-β-catenin (BD Bioscience), anti-p53, mouse anti-Rb and mouse anti-β-actin (Sigma Chemical Co.), and rabbit anti-pRBpS780 (Cell Signaling).

[2] = tested on: Wnt5a mRNA in PEO1 cells; experiment: Wnt5a mRNA expression by qRT-PCR after Aza-C treatment; assay type: cell-based, human; conditions: 5 μmol/L Aza-C for 4 days, vs control
Excerpt: as §1, §2

Nc1ncn([C@@H]2O[C@H](CO)[C@@H](O)[C@H]2O)c(=O)n1 [Aza-C, 5-Aza-cytadine]
levels of Wnt5a protein [1]: significant increase
levels of Wnt5a mRNA [2]: significant increase
